# Experimental data reported in patent publication US7754272B2, “Local drug delivery” (Biocompatibles IK Limited, priority 1999, dated 2010).
# How the values were obtained:
# [1] = Effect of polymer composition on release of dicloxacillin; type: physicochemical; settings: HEMA-PC:LM 1:4 with 2 mole % 3-chloro-2-hydroxypropyl methacrylate vs example 3 polymer, FIG. 2
# Excerpt: The membrane formed based on a 1:4 copolymer of HEMA-PC and dodecylmethacrylate (LM) with 2 mole % of reactive monomer which is 3-chloro-2-hydroxypropyl methacrylate, was compared to the polymer crosslinked by diethylenically unsaturated monomer MBA used in example 3 above, to compare release rates to dicloxacillin, a medium molecular weight model drug.
# [2] = Drug loading of HEMA-PC:HEMA:MMA:MBA crosslinked membrane; type: physicochemical; settings: HEMA-PC:HEMA:MMA:MBA copolymer swollen in aqueous drug solution, room temperature, over night
# Excerpt: The polymers including MBA were polymerised in situ to form crosslinked membranes. […] The crosslinked polymers were used to form “infinite slabs” type membranes, to simulate the coating on a stent. […] The loaded levels were established to be the following: […]
# [3] = Loading and release from quater polymer membrane; type: physicochemical; settings: caffeine from aqueous, dipyridamole from 1:1 ethanol:water solution
# [4] = Ex vivo human saphenous vein model, polymer/dipyridamole coated stents
# Description: Palmaz-Schatz Stents (trade mark) were coated with a solution of the same polymer as used in Reference Example 1, dissolved in ethanol at 50 g/l concentration, also containing dipyridamole at 30 g/l concentration. Stents were dipped into the solution by hand, using several coating steps. The stents were then cured overnight at 70 C. in moist air.
# The coated stents were tested in an ex vivo model using fresh human saphenous vein, previously washed in the same culture medium as is used in Example 16 above, in the ex vivo tests. The stents were delivered into veins, which were subsequently deposited into apparatus used in Example 16. The circulating liquid, and the vessel wall were analysed at 1, 6 or 24 hours to determine localisation of dipyridamole. […] Similarly, the level of dipyridamole remaining on the stent decreases from 1 hour to 24 hours. […] At this time, dipyridamole is concentrated in the section of the vein immediately surrounding the stent with lower levels in the vessel immediately adjacent those sections.
# [5] = Release from loaded membrane into water; type: physicochemical; settings: HEMA-PC:HEMA:MMA:MBA membrane, FIG. 1
# Description: The profile of fractional release against square root of time for release into water (using the same equipment as example 2) are set out in FIG. 1.
SMILES,"release half life, polymer having hydrophobic groups versus MBA-crosslinked polymer [1]",Loading (mg/g polymer) [2],total loading [3],"dipyridamole within the vessel wall ([4]; 1, 6 or 24 hours)",dipyridamole in the circulating medium ([4]; 1 to 24 hours),level of drug per stent (coated stent swollen in aqueous caffeine 10 mg/ml),share of loading released in the first 60 seconds (first 60 seconds),"release times (release into aqueous medium, loaded from 10 mg/ml)",loading levels or release half life versus 10 mg/ml loading (swelling solution 10% w/w caffeine),release into water [5]
"Cc1onc(-c2c(Cl)cccc2Cl)c1C(=O)N[C@@H]1C(=O)N2[C@@H]1SC(C)(C)[C@@H]2C(=O)O [Dicloxacillin, dicloxacillin]",much higher,32 mg/g polymer,,,,,,,,
"OCCN(CCO)c1nc(N2CCCCC2)c2nc(N(CCO)CCO)nc(N3CCCCC3)c2n1 [Dipyridamole, dipyridamole]",,32 mg/g polymer,18 mg/g polymer,no dipyridamole could be seen within the vessel wall until twenty four hours after stent deployment,can be detected in the circulating medium after one hour,,,,,
"Cn1c(=O)c2c(ncn2C)n(C)c1=O [Caffeine, caffeine]",,80 mg/g polymer,28 mg/g polymer,,,around 0.025 mg per stent,at least 80%,negligible,No significant increase,substantially total release after about an hour
